Patent publication US20220233444A1, “THIOESTER CATIONIC LIPIDS” (Translate Bio, Inc., priority 2019, published 2022)

System: BALB/c mice
Test: In vivo expression of hEPO after IM injection of LNP formulations in BALB/c mice
Conditions: lipid nanoparticles with hEPO mRNA, Cationic Lipid, DMG-PEG2000, Cholesterol and DOPE; single intramuscular injection into gastrocnemius muscle, 0.1 ug; male BALB/c mice; 6 hours post-dose; ELISA; FIG. 1
Method: FIG. 1 depicts in vivo protein production resulting from the delivery of mRNA using lipid nanoparticles comprising Compound 30 as described herein.
Lipid nanoparticle formulations comprising human erythropoietin (hEPO) mRNA, Cationic Lipid, DMG-PEG2000, Cholesterol and DOPE were administered intramuscularly to study mRNA delivery and resultant hEPO expression. Male BALB/c mice at 6-8 weeks old are given a single injection of the LNP formulations into the gastrocnemius muscle at a dosage level of 0.1 ug. Blood samples were collected at 6 hours post-dose, hEPO protein expression levels were measured in the sera samples by ELISA and presented in FIG. 1.

CCCCCCCCCCC(O)CN(CCCC(=O)SCCCCSC(=O)CCCN(CC(O)CCCCCCCCCC)CC(O)CCCCCCCCCC)CC(O)CCCCCCCCCC (stereo not shown) [Compound 30]
hEPO protein expression levels in sera (in vivo protein production): high levels of in vivo protein production
